Source: patent publication US20050014743A1, “Combination of an NMDA receptor antagonist and a selective serotonin reuptake inhibitor for the treatment of depression and other mood disorders” (Forest Laboratories, Inc., priority 2003, published 2005)
“Also recorded” adds a separate entry of the source.

How the values were obtained:
C57/B1 mice [1] = assay: mouse tail suspension test (TST); format: in vivo; conditions: for immobility: given with vehicle; for duration of immobility: monotherapy, doses 5-20 mg/kg IP
C57/B1 mice [2] = assay: locomotor activity test (actometers, 6 min); format: in vivo, mouse
5-HT3 receptor = conditions: cited from earlier work; for inhibition of 5HT3-mediated current: memantine: native N1E-115 and heterologous HEK-293 cells
NMDA receptor = target: T1, NMDA receptor (Rattus norvegicus, UniProt P35439); conditions: rat hippocampal slices; cited from earlier work
T1 construct: NMDA receptor-mediated currents (in rat hippocampal slices); from tissue; host or cells: rat hippocampal slices

Structure (SMILES) | immobility (C57/B1 mice [1]; 20 mg/kg IP) | duration of immobility (C57/B1 mice [1]) | locomotor activity (C57/B1 mice [2]; mouse, in vivo) | inhibition of 5HT3-mediated current (5-HT3 receptor) | further results
CNCCC(Oc1ccc(C(F)(F)F)cc1)c1ccccc1 (stereo not shown) [FLU, fluoxetine] | decreased immobility | decrease in the duration of immobility | did not change locomotor activity; also recorded: generally did not affect locomotor activity |  | 
CN(C)CCCN1c2ccccc2CCc2ccccc21 [IMI, imipramine] | decreased immobility | decrease in the duration of immobility | decreased it; also recorded: decreased locomotor activity |  | locomotor activity (C57/B1 mice [2]; mouse, in vivo, ip, 20 mg/kg): decreased locomotor activity
CC1(C)CC(C)(C)CC(C)(N)C1 [NER, 1-amino-1,3,3,5,5-pentamethylcyclohexane] |  | decreased the duration of immobility |  | inhibit | immobility (C57/B1 mice [1]; 2.5 mg/kg IP, 2.5 mg/kg): increased immobility; also recorded: without effect on immobility time; immobility (C57/B1 mice [1]; 20 mg/kg IP, 20 mg/kg): decreased immobility; locomotor activity (C57/B1 mice [2]; given with vehicle (combination study), 20 mg/kg IP): increased locomotor activity; locomotor activity (C57/B1 mice [2]; monotherapy, doses 5-20 mg/kg IP): increased locomotor activity; also recorded: consistent locomotor stimulation
COc1ccc(C(CN(C)C)C2(O)CCCCC2)cc1 (stereo not shown) [VEN, venlafaxine] | decreased immobility | decrease in the duration of immobility |  |  | immobility (C57/B1 mice [1]; 5 mg/kg IP): decreased immobility; locomotor activity (C57/B1 mice [2]; given with vehicle (combination study), 20 mg/kg IP, 20 mg/kg): increased locomotor activity; also recorded: also observed for the dose of 20 mg/kg in one of two studies; locomotor activity (C57/B1 mice [2]; given with vehicle, 5 mg/kg IP, 5 mg/kg): without effect; locomotor activity (C57/B1 mice [2]; monotherapy, 40 mg/kg IP, 40 mg/kg): increased it; also recorded: stimulated locomotion
CC12CC3CC(C)(C1)CC(N)(C3)C2 [memantine, 1-amino-3,5-dimethyl adamantane] |  |  |  | inhibit | inhibition of NMDA receptor-mediated currents (NMDA receptor): inhibit; affinity for 5HT3-mediated current relative to NMDA receptor-mediated currents (5-HT3 receptor; N1E-115 / HEK-293 cells vs rat hippocampal slices): approximately equal affinity
